For four compounds, ED50, TD50 and selectivity ratio results are on record in patent US5446066A, “Substituted (arylalkoxybenzyl)aminopropanamide derivatives and process for their preparation” (Farmitalia Carlo Erba S.r.l., priority 1993, dated 1995).

The structures appear in SMILES notation.

Data set [1] can be described thus: antagonism of maximal electroshock seizures (MES test). In kind it is in vivo. The settings on record: read-out: MES-ED50 (effective dose in 50% of treated animals). On the procedure: The compounds of the invention are active on the central nervous system (CNS) and can be used in therapy, for example as antiepileptics, in the treatment of Parkinson's disease and as neuroprotective agents, e.g. in degenerative processes associated with normal ageing or pathological situations, such as brain ischemia; they can also be used as antidepressants, hypnotics and antispastic agents. The activity on the CNS of the compounds of the invention was evaluated on the basis of pharmacological methods, such as, for example, the antagonism of convulsions and lethality induced by intravenous injection of bicuculline in mice (Antiepileptic Drugs, D. M. Woodbury et al. eds., 2nd edition, Raven Press, New York, 1982), or the antagonism of maximal electroshock seizures (MES) (Woodbury, L. A. and Davenport V. D., Arch. Int. Pharmacodyn. Ther. 92; 97-104, 1952).
(§1) For instance, the following Table 1 summarizes the activity and neurotoxicity data obtained in the MES test and in the rotorod test, respectively, for a representative group of compounds according to the present invention, in comparison with the prior art compound 2-[4-(3-phenylpropyl)oxybenzyl]aminopropanamide methanesulfonate (internal code FCE 27023) which is known from WO-90/14334
ED50 means effective dose in 50% of treated animals
Background: The maximal electroshock test induces tonic seizures with an electrical stimulus.

A further data set in a line: in vivo. On the procedure:
The neurotoxicity of the compound and of the reference anticonvulsants was assessed with the rotorod test (Dunan and Miye., J. Am. Pharm. Ass. Sci. Ed., 1957, 46, 208; Kinnard et al., J. Pharmacol. Exp. Ther. 1957, 121, 354; Horowitz. Nature, 1963, 200, 369).
as §1
TD50 means toxic dose in 50% of treated animals
TI means therapeutic index (TD50 /ED50)

For the compound `CC(NCc1ccc(OCCCCc2ccccc2)cc1)C(N)=O` (stereo not drawn) [compound 28243], in data set [1], the ED50 amounted to 12.4 mg/kg. For the same compound, in “in vivo”, the TD50 came to 1000 mg/kg and the selectivity ratio was determined as 82.
For `NC(=O)C(CO)NCc1ccc(OCCCc2ccccc2)cc1` (stereo not drawn) [compound 28245], the ED50 in data set [1] came out at 8.6 mg/kg. Also, in “in vivo”, the TD50 worked out at 863 mg/kg and the selectivity ratio stood at 100.
The like results for `CC(NCc1ccc(OCCCCCc2ccccc2)cc1)C(N)=O` (stereo not drawn) [compound 28244] were, in that order, 12.5 mg/kg, 1010 mg/kg and 81.
Consider `CC(NCc1ccc(OCCCc2ccccc2)cc1)C(N)=O` (stereo not drawn) [compound 27023], for which the ED50 in data set [1] turned out to be 8.8 mg/kg. Besides, in the data set “in vivo”, the TD50 was 584 mg/kg and the selectivity ratio was found to be 66.

In general, ED50 refers to the dose at which the effect has come halfway, by size or by number of responders.
